Measurements taken from ChEMBL document CHEMBL1150040 (Bioorg Med Chem Lett, 1995).

target: Protein kinase C eta type (Homo sapiens, UniProt P24723); assay: Inhibition of human protein kinase C eta
Sequence (P24723 whole entry): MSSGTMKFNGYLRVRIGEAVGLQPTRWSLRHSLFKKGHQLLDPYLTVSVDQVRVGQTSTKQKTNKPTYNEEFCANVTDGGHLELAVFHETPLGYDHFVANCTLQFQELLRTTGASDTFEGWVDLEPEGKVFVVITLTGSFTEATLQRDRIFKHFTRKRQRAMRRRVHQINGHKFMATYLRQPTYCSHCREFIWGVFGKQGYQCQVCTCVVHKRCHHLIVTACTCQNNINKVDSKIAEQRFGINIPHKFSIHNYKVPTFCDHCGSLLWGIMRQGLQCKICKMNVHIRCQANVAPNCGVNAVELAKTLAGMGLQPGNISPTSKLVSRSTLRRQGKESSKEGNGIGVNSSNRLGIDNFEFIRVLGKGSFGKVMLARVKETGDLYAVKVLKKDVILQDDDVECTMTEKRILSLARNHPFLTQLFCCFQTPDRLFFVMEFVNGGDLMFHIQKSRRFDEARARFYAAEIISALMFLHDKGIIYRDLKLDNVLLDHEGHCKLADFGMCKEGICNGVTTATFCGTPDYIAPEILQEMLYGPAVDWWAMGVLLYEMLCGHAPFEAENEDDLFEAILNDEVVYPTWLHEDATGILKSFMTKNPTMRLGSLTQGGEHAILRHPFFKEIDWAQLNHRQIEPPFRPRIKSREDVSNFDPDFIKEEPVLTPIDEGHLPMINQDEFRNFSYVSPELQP

First: O=C(N[C@@H]1CCC[C@H]1OC(=O)c1cc(O)c(C(=O)c2c(O)cccc2C(=O)O)c(O)c1)c1ccc(O)cc1
Second: O=C(N[C@@H]1CCCCC[C@H]1OC(=O)c1cc(O)c(C(=O)c2c(O)cccc2C(=O)O)c(O)c1)c1ccc(O)cc1
The IC50 of the first is 100-fold lower: 0.0006 µM for the first, 0.06 µM for the second. The first is the more potent here.

Compared with `O=C(N[C@@H]1CNC[C@H]1OC(=O)c1cc(O)c(C(=O)c2c(O)cccc2C(=O)O)c(O)c1)c1ccc(O)cc1`, `O=C(N[C@@H]1CNCC[C@H]1OC(=O)c1cc(O)c(C(=O)c2c(O)cccc2C(=O)O)c(O)c1)c1ccc(O)cc1` is 20-fold higher in IC50: 0.004 µM for the first, 0.08 µM for the second. The first is the more potent here.

`O=C(N[C@@H]1CNCCC[C@H]1OC(=O)c1cc(O)c(C(=O)c2c(O)cccc2C(=O)O)c(O)c1)c1ccc(O)cc1` (racemic) [BALANOL] showed an IC50 of 0.022 µM.

target: Protein kinase C alpha type (Homo sapiens, UniProt P17252); assay: Inhibition of human Protein kinase C alpha

First: O=C(N[C@@H]1CCC[C@H]1OC(=O)c1cc(O)c(C(=O)c2c(O)cccc2C(=O)O)c(O)c1)c1ccc(O)cc1
Second: O=C(N[C@@H]1CCCCC[C@H]1OC(=O)c1cc(O)c(C(=O)c2c(O)cccc2C(=O)O)c(O)c1)c1ccc(O)cc1
The IC50 of the first is 6.8-fold lower: 0.04 µM for the first, 0.27 µM for the second.

Going from `O=C(N[C@@H]1CNC[C@H]1OC(=O)c1cc(O)c(C(=O)c2c(O)cccc2C(=O)O)c(O)c1)c1ccc(O)cc1` to `O=C(N[C@@H]1CNCC[C@H]1OC(=O)c1cc(O)c(C(=O)c2c(O)cccc2C(=O)O)c(O)c1)c1ccc(O)cc1`, the IC50 rises from 0.022 µM to 5.1 µM (230-fold). The first is the more potent here.

`O=C(N[C@@H]1CNCCC[C@H]1OC(=O)c1cc(O)c(C(=O)c2c(O)cccc2C(=O)O)c(O)c1)c1ccc(O)cc1` (racemic) [BALANOL] was tested, and the IC50 was 0.074 µM.

target: Protein kinase C gamma type (Homo sapiens, UniProt P05129); assay: Inhibition of human Protein kinase C gamma

Going from `O=C(N[C@@H]1CCC[C@H]1OC(=O)c1cc(O)c(C(=O)c2c(O)cccc2C(=O)O)c(O)c1)c1ccc(O)cc1` to `O=C(N[C@@H]1CCCCC[C@H]1OC(=O)c1cc(O)c(C(=O)c2c(O)cccc2C(=O)O)c(O)c1)c1ccc(O)cc1`, the IC50 rises from 0.01 µM to 0.06 µM (6-fold).

Compared with `O=C(N[C@@H]1CNC[C@H]1OC(=O)c1cc(O)c(C(=O)c2c(O)cccc2C(=O)O)c(O)c1)c1ccc(O)cc1`, `O=C(N[C@@H]1CNCC[C@H]1OC(=O)c1cc(O)c(C(=O)c2c(O)cccc2C(=O)O)c(O)c1)c1ccc(O)cc1` is 170-fold higher in IC50: 0.013 µM for the first, 2.2 µM for the second. The first is the more potent here.

Work on `O=C(N[C@@H]1CNCCC[C@H]1OC(=O)c1cc(O)c(C(=O)c2c(O)cccc2C(=O)O)c(O)c1)c1ccc(O)cc1` (racemic) [BALANOL] yielded an IC50 of 0.034 µM.

target: T1, Protein kinase C beta type (Homo sapiens, UniProt P05771); assay: Inhibition of human Protein kinase C beta 1
T1 sequence (P05771 whole entry): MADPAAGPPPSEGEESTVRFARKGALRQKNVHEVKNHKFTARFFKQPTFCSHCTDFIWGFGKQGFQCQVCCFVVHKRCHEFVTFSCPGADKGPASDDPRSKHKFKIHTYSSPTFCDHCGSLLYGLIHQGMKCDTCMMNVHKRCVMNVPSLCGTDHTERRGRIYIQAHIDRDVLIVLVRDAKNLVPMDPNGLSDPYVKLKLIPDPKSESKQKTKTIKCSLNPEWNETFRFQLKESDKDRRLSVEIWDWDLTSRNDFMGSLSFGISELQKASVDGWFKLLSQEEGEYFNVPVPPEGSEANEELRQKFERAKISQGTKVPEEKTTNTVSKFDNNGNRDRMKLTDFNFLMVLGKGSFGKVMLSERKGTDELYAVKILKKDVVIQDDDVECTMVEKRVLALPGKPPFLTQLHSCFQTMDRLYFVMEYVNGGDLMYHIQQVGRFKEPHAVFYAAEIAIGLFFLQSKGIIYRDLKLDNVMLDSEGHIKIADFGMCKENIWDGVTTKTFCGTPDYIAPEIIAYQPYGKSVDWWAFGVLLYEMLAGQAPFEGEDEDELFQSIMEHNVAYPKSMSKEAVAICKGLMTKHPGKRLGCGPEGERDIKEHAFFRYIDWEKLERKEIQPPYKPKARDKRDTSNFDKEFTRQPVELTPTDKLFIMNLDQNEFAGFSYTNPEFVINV

First: O=C(N[C@@H]1CCC[C@H]1OC(=O)c1cc(O)c(C(=O)c2c(O)cccc2C(=O)O)c(O)c1)c1ccc(O)cc1
Second: O=C(N[C@@H]1CCCCC[C@H]1OC(=O)c1cc(O)c(C(=O)c2c(O)cccc2C(=O)O)c(O)c1)c1ccc(O)cc1
The IC50 of the first is 5.5-fold lower: 0.04 µM for the first, 0.22 µM for the second.

First: O=C(N[C@@H]1CNC[C@H]1OC(=O)c1cc(O)c(C(=O)c2c(O)cccc2C(=O)O)c(O)c1)c1ccc(O)cc1
Second: O=C(N[C@@H]1CNCC[C@H]1OC(=O)c1cc(O)c(C(=O)c2c(O)cccc2C(=O)O)c(O)c1)c1ccc(O)cc1
The IC50 of the first is 130-fold lower: 0.017 µM for the first, 2.2 µM for the second. The first is the more potent here.

`O=C(N[C@@H]1CNCCC[C@H]1OC(=O)c1cc(O)c(C(=O)c2c(O)cccc2C(=O)O)c(O)c1)c1ccc(O)cc1` (racemic) [BALANOL] showed an IC50 of 0.032 µM.

target: Protein kinase C delta type (Homo sapiens, UniProt Q05655); assay: Inhibition of human Protein kinase C delta
Sequence (Q05655 whole entry): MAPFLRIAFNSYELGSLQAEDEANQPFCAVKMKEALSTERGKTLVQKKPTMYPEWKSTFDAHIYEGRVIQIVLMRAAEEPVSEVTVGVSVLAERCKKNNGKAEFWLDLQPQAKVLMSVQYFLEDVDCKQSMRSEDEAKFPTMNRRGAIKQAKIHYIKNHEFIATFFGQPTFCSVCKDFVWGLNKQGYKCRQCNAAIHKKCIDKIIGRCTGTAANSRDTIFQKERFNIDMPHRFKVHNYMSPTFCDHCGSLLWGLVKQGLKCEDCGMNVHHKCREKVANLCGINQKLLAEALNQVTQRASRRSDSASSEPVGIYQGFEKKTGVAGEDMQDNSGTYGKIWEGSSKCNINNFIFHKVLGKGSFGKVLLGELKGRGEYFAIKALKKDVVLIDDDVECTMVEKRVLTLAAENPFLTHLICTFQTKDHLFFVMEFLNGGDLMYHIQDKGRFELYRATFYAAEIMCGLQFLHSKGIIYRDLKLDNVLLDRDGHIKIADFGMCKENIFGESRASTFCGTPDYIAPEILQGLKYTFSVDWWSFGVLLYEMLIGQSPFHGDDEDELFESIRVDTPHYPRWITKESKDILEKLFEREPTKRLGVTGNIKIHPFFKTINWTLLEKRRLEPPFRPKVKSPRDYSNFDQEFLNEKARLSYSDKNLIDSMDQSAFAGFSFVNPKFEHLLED

Compared with `O=C(N[C@@H]1CCC[C@H]1OC(=O)c1cc(O)c(C(=O)c2c(O)cccc2C(=O)O)c(O)c1)c1ccc(O)cc1`, `O=C(N[C@@H]1CCCCC[C@H]1OC(=O)c1cc(O)c(C(=O)c2c(O)cccc2C(=O)O)c(O)c1)c1ccc(O)cc1` is 100-fold higher in IC50: 0.0009 µM for the first, 0.09 µM for the second.

Compared with `O=C(N[C@@H]1CNC[C@H]1OC(=O)c1cc(O)c(C(=O)c2c(O)cccc2C(=O)O)c(O)c1)c1ccc(O)cc1`, `O=C(N[C@@H]1CNCC[C@H]1OC(=O)c1cc(O)c(C(=O)c2c(O)cccc2C(=O)O)c(O)c1)c1ccc(O)cc1` is 10-fold higher in IC50: 0.005 µM for the first, 0.05 µM for the second.

Compound `O=C(N[C@@H]1CNCCC[C@H]1OC(=O)c1cc(O)c(C(=O)c2c(O)cccc2C(=O)O)c(O)c1)c1ccc(O)cc1` (racemic) [BALANOL] has an IC50 of 0.032 µM.

target: T2, Protein kinase C epsilon type (Homo sapiens, UniProt Q02156); assay: Inhibition of human Protein kinase C epsilon
T2 sequence (Q02156 whole entry): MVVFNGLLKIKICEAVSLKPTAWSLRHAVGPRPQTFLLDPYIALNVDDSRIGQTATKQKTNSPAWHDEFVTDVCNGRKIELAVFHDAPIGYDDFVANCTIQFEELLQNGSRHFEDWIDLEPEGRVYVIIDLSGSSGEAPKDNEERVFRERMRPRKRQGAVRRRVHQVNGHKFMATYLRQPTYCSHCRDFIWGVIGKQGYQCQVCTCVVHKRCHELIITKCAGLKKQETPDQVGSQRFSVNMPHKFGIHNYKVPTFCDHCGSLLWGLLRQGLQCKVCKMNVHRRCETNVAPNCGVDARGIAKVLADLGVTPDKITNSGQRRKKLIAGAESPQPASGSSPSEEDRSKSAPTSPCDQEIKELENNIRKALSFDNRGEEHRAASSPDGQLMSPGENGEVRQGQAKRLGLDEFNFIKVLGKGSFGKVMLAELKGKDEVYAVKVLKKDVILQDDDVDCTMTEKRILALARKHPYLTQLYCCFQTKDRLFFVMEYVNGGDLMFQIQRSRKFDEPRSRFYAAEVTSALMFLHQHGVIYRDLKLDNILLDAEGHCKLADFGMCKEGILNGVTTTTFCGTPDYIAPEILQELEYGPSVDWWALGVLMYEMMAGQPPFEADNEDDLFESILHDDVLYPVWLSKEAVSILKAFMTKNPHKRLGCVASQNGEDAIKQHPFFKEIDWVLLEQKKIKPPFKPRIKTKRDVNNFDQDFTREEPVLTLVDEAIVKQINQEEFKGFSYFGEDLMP

First: O=C(N[C@@H]1CCC[C@H]1OC(=O)c1cc(O)c(C(=O)c2c(O)cccc2C(=O)O)c(O)c1)c1ccc(O)cc1
Second: O=C(N[C@@H]1CCCCC[C@H]1OC(=O)c1cc(O)c(C(=O)c2c(O)cccc2C(=O)O)c(O)c1)c1ccc(O)cc1
The IC50 of the first is 5.6-fold lower: 0.05 µM for the first, 0.28 µM for the second.

First: O=C(N[C@@H]1CNC[C@H]1OC(=O)c1cc(O)c(C(=O)c2c(O)cccc2C(=O)O)c(O)c1)c1ccc(O)cc1
Second: O=C(N[C@@H]1CNCC[C@H]1OC(=O)c1cc(O)c(C(=O)c2c(O)cccc2C(=O)O)c(O)c1)c1ccc(O)cc1
The IC50 of the first is 180-fold lower: 0.01 µM for the first, 1.8 µM for the second. The first is the more potent here.

target: T1, Protein kinase C beta type; assay: Inhibition of human Protein kinase C beta 2

Going from `O=C(N[C@@H]1CCC[C@H]1OC(=O)c1cc(O)c(C(=O)c2c(O)cccc2C(=O)O)c(O)c1)c1ccc(O)cc1` to `O=C(N[C@@H]1CCCCC[C@H]1OC(=O)c1cc(O)c(C(=O)c2c(O)cccc2C(=O)O)c(O)c1)c1ccc(O)cc1`, the IC50 rises from 0.05 µM to 0.43 µM (8.6-fold). The first is the more potent here.

Going from `O=C(N[C@@H]1CNC[C@H]1OC(=O)c1cc(O)c(C(=O)c2c(O)cccc2C(=O)O)c(O)c1)c1ccc(O)cc1` to `O=C(N[C@@H]1CNCC[C@H]1OC(=O)c1cc(O)c(C(=O)c2c(O)cccc2C(=O)O)c(O)c1)c1ccc(O)cc1`, the IC50 rises from 0.033 µM to 4.7 µM (140-fold).

Compound `O=C(N[C@@H]1CNCCC[C@H]1OC(=O)c1cc(O)c(C(=O)c2c(O)cccc2C(=O)O)c(O)c1)c1ccc(O)cc1` (racemic) [BALANOL] has an IC50 of 0.044 µM.

target: T3, Protein kinase C zeta type (Homo sapiens, UniProt Q05513); assay: Inhibition of Protein kinase C zeta
T3 sequence (Q05513 whole entry): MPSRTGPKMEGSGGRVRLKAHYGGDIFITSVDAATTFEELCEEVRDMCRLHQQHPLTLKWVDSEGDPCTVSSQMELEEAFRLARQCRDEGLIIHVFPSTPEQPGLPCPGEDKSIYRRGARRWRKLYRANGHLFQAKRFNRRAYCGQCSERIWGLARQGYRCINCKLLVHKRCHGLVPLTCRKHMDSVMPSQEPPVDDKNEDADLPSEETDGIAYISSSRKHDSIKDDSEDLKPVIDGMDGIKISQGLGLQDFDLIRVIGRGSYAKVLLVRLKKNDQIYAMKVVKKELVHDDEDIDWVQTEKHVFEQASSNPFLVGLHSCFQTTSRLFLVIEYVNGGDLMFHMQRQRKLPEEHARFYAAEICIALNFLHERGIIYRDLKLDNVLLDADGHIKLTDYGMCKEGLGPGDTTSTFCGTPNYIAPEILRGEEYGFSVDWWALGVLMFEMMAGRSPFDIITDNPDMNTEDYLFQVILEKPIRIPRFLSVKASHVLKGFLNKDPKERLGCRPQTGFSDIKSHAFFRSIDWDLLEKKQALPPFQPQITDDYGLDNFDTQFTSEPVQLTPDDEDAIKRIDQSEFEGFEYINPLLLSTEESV

`O=C(N[C@@H]1CNC[C@H]1OC(=O)c1cc(O)c(C(=O)c2c(O)cccc2C(=O)O)c(O)c1)c1ccc(O)cc1` and `O=C(N[C@@H]1CNCC[C@H]1OC(=O)c1cc(O)c(C(=O)c2c(O)cccc2C(=O)O)c(O)c1)c1ccc(O)cc1` cannot be ordered by IC50: > 0.15 µM for the first, > 150 µM for the second.

First: O=C(N[C@@H]1CCCCC[C@H]1OC(=O)c1cc(O)c(C(=O)c2c(O)cccc2C(=O)O)c(O)c1)c1ccc(O)cc1
Second: O=C(N[C@@H]1CNCCC[C@H]1OC(=O)c1cc(O)c(C(=O)c2c(O)cccc2C(=O)O)c(O)c1)c1ccc(O)cc1 (racemic) [BALANOL]
The IC50 of the first is higher: > 150 µM for the first, 3.5 µM for the second. The second is the more potent here.
